Laboratory results as given in PMC5937873, “Improving the biopharmaceutical attributes of mangiferin using vitamin E-TPGS co-loaded self-assembled phosholipidic nano-mixed micellar systems” (Drug Delivery and Translational Research, 2018).
Converted amounts (≈) assume the structure as drawn. Read-outs that look alike come from different tables or passages of the source.

Legend:
[1] = Equilibrium solubility studies in emulgents and cosolvents; type: physicochemical; details: 37 ± 1 °C
Experimental: Solubility studies for Mgf were carried out for 72 h at 37 ± 1 °C in a water bath by adding an excess amount of drug in various water-soluble emulgents, viz. Acconon CC-6, Cremophor RH40, Cremophor EL, Vitamin E TPGS, Labrafil […], Labrasol, Tween 80 and Tween 40. Cosolvents employed included Transcutol HP, PEG 200, and propylene glycol. Aliquots of the filtrate were suitably diluted with methanol and analyzed using the HPTLC method previously reported by the authors at a λmax of 262 nm.

[2] = In vivo pharmacokinetic studies; details: rat, oral, Mgf equivalent to 30 mg/kg
Experimental: In vivo pharmacokinetic studies were conducted by sparse sampling designed experiment. The formulations were administered through oral gavage on two groups of rats (n = 60). Within each group, five subgroups were designated (5 × 6 = 30 animals were employed in one group) and from one animal maximum two blood samples were withdrawn during the entire study alternating between left and right eyes. Group I was administered plain Mgf solution and Group II was given Mgf-SPNMS containing Mgf equivalent to 30mg/Kg. The animals were anesthetized employing isoflurane, and the blood (200 μL) was withdrawn from the retro-orbital plexus of rats at 0.5, 1, 2, 3, 6, 12, 18, 24, and 36 h, in heparin-coated micro-centrifuge tubes.
Further, plasma was harvested by centrifugation at 10,000 rpm (559 g) for 5 min and analyzed for Mgf using the previously reported and validated HPTLC method. The data were analyzed by non-compartmental and compartmental pharmacokinetic modeling approaches using the WinNonlin software, version 5.0 ([…]). Statistical tests like one-way/two-way ANOVA followed by post hoc multiple comparison tests, and Student’s independent t test has been applied wherever applicable.

[3] = Biopharmaceutics classification (BCS); details: by virtue of low aqueous solubility and lipophilicity
vital organs = experiment: Histopathology of vital organs (in vivo toxicity); details: SD female rats, 30 mg/kg Mgf oral gavage, three times per week for 4 weeks
whole blood = experiment: Hematological studies (whole blood count, RBC morphology); details: SD female rats, 30 mg/kg Mgf oral gavage, three times per week for 4 weeks
[4] = excised rat small intestine, 2 h
MDR1 transporters = molecular target: T1, MDR1 transporters (Homo sapiens, UniProt P08183); experiment: P-gp efflux assay with Rh-123 dye (multi-drug resistance dye efflux kit); type: cell-based; details: MCF-7 and MDA-MB-231 cells, 37 °C
T1 construct: Overexpression of P-gp in MCF-7 and MDA-MB-231 cells is well-documented in literature; endogenous in cells; host or cells: MCF-7 and MDA-MB-231 cells
T1 sequence (P08183 whole entry): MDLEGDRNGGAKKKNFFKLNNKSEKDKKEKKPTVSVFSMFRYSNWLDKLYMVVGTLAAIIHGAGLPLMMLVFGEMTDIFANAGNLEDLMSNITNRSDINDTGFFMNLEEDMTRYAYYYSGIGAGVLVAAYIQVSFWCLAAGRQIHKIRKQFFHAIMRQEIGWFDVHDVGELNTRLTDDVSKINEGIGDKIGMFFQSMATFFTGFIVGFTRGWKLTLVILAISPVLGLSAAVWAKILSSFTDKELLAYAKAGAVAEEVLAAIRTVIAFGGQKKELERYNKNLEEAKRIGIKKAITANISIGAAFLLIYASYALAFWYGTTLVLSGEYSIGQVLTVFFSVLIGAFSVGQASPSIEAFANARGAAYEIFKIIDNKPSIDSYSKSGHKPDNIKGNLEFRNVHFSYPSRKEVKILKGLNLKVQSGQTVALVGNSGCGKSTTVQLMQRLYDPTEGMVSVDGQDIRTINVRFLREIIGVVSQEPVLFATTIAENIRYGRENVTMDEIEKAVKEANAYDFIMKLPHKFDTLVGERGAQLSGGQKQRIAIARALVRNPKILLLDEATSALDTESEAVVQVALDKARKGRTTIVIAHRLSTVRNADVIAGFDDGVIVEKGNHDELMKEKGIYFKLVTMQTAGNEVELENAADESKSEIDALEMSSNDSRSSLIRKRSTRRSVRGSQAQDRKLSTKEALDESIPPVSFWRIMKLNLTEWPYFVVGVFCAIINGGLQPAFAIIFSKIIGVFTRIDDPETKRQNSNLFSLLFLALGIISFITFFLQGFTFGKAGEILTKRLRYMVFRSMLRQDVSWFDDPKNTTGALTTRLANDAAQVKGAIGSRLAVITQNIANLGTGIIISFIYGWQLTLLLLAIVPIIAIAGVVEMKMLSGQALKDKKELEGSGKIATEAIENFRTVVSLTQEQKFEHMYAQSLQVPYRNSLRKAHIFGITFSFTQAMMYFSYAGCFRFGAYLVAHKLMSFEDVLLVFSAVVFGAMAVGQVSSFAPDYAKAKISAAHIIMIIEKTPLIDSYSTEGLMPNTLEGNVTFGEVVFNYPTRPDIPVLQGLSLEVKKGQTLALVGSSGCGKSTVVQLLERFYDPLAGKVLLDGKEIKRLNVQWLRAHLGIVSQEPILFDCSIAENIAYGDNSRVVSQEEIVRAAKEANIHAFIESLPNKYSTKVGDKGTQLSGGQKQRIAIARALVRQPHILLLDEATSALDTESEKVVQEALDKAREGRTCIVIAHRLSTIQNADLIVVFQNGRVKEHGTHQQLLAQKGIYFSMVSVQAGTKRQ
Experimental: (§1) Overexpression of P-gp in MCF-7 and MDA-MB-231 cells is well-documented in literature. […] For evaluating the P-gp efflux, the multi-drug resistance dye efflux assay kit (Chemicon International, USA) was employed in which the MCF-7 and MDA-MB-231 cells (2.5 × 10^5) were treated with Rh-123 and DiOC2 dyes, with or without vinblastine. To assess the inhibitory activity of SPNMS on MDR1 transporters, these were incubated with Rh-123 alone, Rh-123 with SPNMS, and Rh-123 with vinblastine at 37 °C, along with Rh-123 at 4 °C. Likewise, to estimate the potential of the developed SPNMS formulation for blocking the activity of BCRP transporters, DiOC2 dye was employed. On similar heels, MCF-7 and MDA-MB-231 cells (2.5 × 10^5) were incubated with DiOC2 alone, DiOC2 with SPNMS, and DiOC2 with vinblastine at 37 °C, along with DiOC2 at 4 °C. The fluorescence intensity was measured in a TECAN fluorescence microplate reader at an excitation wavelength of 485 nm and an emission wavelength of 530 nm.

BCRP transporters = molecular target: T2, BCRP transporters (Homo sapiens, UniProt Q9UNQ0); experiment: P-gp efflux assay with DiOC2 dye (multi-drug resistance dye efflux kit); type: cell-based; details: MCF-7 and MDA-MB-231 cells, 37 °C
T2 construct: endogenous in cells; host or cells: MCF-7 and MDA-MB-231 cells
T2 sequence (Q9UNQ0 1-655): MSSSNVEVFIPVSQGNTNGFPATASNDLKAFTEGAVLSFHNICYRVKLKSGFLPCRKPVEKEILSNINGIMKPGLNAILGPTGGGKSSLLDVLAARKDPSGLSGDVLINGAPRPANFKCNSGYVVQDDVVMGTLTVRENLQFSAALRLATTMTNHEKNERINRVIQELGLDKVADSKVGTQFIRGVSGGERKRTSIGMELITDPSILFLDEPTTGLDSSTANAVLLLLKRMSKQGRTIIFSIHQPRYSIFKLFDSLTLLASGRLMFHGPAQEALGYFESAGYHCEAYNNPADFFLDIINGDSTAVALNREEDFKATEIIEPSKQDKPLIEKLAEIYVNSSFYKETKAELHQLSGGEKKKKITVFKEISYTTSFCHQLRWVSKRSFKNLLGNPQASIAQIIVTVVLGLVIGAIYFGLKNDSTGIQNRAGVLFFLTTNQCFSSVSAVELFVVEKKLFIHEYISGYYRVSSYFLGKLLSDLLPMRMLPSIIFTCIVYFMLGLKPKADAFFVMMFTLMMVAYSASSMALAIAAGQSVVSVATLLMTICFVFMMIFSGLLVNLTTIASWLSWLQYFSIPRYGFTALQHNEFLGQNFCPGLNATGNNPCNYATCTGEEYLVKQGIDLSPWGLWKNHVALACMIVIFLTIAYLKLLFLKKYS
Experimental: as §1

O=c1c2cc(O)c(O)cc2oc2cc(O)c([C@@H]3O[C@H](CO)[C@@H](O)[C@H](O)[C@H]3O)c(O)c12 [Mgf, mangiferin]
solubility thermodynamic at 72 h ([1]; PEG 200 (cosolvent), highest among cosolvents, read-out: equilibrium solubility in PEG 200): 10.2 mg/mL (≈ 24.2 mM) | solubility thermodynamic at 72 h ([1]; vitamin E TPGS (water-soluble emulgent), maximum among surfactants, read-out: equilibrium solubility in vitamin E TPGS): 17.6 mg/mL (≈ 41.8 mM) | Cmax ([2]; plasma): 297 ± 56.4 ng/mL | MRT ([2]; plasma): 8.16 ± 1.73 h | Tmax ([2]; plasma): 3.08 ± 0.18 h | Cl [2]: 2543.44 ± 453.42 mL/h | Ka [2]: 0.32 ± 0.09 h⁻¹ | BCS class [3]: BCS class IV | histopathological change(s) in vital organs (vital organs): no histopathological change(s) | HCT (whole blood): 43.9% | HGB (whole blood): 14.54 g/dL | PLT count (whole blood): AG* 589 × 10^3/μL | RBC count (whole blood): 8.21e+06 µL⁻¹ | WBC count (whole blood): 16400 µL⁻¹

COC(=O)c1ccccc1-c1c2ccc(=N)cc-2oc2cc(N)ccc12 [Rh-123, Rhodamine 123]
intestinal permeation (CLSM) [4]: does not permeate through the intestine

CC[C@]1(O)C[C@@H]2CN(CCc3c([nH]c4ccccc34)[C@@](C(=O)OC)(c3cc4c(cc3OC)N(C)[C@H]3[C@@](O)(C(=O)OC)[C@H](OC(C)=O)[C@]5(CC)C=CCN6CC[C@]43[C@@H]65)C2)C1 [vinblastine]
inhibition of Rh-123 efflux (fluorescence intensity) (MDR1 transporters): higher fluorescence intensity without any efflux | inhibition of DiOC2 efflux (fluorescence intensity) (BCRP transporters): higher fluorescence intensity without any efflux
